Laboratory results as given in ChEMBL document CHEMBL5291721, “A preclinical secondary pharmacology resource illuminates target-adverse drug reaction associations of marketed drugs” (Nat Commun, 2023).

How the values were obtained:
Androgen receptor [1] = molecular target: T1, Androgen receptor (Rattus norvegicus, UniProt P15207); format: functional
T1 sequence (P15207 whole entry): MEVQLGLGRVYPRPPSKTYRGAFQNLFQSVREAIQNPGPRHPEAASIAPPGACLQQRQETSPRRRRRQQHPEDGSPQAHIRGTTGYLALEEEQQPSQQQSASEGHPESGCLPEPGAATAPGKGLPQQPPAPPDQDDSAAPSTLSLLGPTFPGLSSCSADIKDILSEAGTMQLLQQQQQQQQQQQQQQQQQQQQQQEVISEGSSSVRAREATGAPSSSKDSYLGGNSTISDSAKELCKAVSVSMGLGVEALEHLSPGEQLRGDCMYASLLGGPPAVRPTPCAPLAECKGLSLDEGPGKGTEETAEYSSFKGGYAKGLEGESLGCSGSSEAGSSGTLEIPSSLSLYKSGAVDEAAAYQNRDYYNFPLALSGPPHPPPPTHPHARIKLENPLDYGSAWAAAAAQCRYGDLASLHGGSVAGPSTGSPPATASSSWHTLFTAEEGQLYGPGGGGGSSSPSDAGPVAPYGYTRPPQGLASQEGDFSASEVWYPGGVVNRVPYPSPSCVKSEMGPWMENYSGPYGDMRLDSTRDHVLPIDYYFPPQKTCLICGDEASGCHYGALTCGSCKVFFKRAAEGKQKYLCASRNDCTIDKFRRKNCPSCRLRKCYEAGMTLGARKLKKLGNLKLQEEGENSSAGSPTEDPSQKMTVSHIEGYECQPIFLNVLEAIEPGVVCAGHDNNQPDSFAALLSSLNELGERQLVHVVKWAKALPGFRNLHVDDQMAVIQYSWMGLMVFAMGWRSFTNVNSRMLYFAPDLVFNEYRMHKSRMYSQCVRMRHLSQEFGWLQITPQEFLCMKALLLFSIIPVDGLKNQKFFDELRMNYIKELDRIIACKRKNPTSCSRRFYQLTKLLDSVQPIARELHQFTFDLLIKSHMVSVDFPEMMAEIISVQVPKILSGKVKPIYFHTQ

Cannabinoid receptor 1 = Cannabinoid receptor 1 (Homo sapiens, UniProt P21554); format: functional
Sequence of Cannabinoid receptor 1 (P21554 whole entry): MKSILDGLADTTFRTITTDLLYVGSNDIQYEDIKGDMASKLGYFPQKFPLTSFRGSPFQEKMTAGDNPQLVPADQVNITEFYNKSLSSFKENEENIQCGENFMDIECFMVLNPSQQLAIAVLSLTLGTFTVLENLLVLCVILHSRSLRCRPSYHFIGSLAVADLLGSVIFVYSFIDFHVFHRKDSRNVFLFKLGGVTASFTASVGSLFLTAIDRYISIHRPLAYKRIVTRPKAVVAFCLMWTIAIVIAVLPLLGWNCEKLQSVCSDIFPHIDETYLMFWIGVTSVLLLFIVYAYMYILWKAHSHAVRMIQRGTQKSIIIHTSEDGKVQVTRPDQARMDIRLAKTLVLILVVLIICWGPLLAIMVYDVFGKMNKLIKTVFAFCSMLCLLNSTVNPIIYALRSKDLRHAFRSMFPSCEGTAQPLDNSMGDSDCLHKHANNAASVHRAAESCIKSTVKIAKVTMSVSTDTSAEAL

D(4) dopamine receptor = molecular target: T2, D(4) dopamine receptor (Homo sapiens, UniProt P21917)
T2 sequence (P21917 whole entry): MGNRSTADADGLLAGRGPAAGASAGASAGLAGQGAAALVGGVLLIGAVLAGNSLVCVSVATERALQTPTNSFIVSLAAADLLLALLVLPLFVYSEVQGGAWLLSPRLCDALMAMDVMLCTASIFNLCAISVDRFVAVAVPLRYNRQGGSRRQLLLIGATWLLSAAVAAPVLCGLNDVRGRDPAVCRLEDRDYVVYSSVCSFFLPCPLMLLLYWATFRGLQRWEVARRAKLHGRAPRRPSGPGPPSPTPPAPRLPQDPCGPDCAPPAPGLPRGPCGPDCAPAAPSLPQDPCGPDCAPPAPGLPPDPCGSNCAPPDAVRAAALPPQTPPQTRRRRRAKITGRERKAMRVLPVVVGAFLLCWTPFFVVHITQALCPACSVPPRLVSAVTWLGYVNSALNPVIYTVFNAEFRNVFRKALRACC

Estrogen receptor beta = Estrogen receptor beta (Homo sapiens, UniProt Q92731)
Sequence of Estrogen receptor beta (Q92731 whole entry): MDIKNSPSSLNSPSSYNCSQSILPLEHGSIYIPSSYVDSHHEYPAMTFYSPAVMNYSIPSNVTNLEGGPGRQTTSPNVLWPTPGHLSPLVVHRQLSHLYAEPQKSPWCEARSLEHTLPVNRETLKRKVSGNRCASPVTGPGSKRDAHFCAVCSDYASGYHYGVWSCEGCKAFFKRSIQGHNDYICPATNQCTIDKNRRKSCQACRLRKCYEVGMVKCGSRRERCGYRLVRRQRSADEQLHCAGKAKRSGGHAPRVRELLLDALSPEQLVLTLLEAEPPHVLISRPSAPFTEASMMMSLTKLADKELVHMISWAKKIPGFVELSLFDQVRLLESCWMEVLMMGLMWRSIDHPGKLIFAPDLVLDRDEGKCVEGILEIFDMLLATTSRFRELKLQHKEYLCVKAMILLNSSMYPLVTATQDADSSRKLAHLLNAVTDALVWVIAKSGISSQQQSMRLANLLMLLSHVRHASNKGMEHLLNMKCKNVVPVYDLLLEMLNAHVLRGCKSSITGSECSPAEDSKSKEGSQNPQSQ

[2] = molecular target: Gamma-aminobutyric acid type B receptor subunit 1 (Homo sapiens, UniProt Q9UBS5)
Sequence of Gamma-aminobutyric acid type B receptor subunit 1 (Q9UBS5 whole entry): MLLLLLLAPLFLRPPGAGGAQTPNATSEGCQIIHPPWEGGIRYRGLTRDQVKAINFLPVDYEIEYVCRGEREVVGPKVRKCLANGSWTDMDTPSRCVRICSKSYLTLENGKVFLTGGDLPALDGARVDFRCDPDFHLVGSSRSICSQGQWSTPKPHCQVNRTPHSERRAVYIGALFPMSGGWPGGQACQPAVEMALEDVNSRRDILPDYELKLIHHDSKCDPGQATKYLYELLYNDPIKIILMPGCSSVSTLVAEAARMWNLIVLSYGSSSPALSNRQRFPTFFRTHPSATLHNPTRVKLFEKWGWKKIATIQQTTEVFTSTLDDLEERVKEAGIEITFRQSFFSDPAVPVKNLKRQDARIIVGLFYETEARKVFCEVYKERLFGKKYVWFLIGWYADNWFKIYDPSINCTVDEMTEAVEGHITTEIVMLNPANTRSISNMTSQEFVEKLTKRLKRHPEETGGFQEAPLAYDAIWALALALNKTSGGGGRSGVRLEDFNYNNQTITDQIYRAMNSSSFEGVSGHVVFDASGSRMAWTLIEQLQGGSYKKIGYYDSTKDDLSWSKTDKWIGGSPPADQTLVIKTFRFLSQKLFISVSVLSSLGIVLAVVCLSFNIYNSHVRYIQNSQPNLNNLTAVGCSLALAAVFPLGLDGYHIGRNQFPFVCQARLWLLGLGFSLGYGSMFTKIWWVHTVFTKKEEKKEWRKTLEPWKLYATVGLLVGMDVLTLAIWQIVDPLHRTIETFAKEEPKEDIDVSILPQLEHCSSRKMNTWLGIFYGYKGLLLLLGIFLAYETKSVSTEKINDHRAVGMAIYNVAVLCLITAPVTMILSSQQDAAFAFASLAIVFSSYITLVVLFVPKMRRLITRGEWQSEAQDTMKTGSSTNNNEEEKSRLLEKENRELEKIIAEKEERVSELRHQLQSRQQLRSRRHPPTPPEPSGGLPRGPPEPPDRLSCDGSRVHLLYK

[3] = molecular target: 5-hydroxytryptamine receptor 7 (Homo sapiens, UniProt P34969)
Sequence of 5-hydroxytryptamine receptor 7 (P34969 whole entry): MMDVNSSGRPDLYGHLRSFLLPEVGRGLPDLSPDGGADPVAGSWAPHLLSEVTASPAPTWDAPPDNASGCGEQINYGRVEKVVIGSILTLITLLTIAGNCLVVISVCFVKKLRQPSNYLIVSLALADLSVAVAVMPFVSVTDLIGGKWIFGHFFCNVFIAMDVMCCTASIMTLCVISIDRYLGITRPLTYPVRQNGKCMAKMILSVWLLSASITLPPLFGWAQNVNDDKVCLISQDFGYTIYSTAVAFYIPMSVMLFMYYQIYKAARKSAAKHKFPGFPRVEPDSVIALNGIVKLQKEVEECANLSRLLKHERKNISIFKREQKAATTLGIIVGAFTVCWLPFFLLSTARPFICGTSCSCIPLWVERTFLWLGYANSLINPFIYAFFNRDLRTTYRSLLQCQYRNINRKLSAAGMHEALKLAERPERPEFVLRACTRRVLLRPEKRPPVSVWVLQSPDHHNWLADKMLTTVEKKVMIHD

Substance-K receptor = molecular target: T3, Substance-K receptor (Homo sapiens, UniProt P21452)
T3 sequence (P21452 whole entry): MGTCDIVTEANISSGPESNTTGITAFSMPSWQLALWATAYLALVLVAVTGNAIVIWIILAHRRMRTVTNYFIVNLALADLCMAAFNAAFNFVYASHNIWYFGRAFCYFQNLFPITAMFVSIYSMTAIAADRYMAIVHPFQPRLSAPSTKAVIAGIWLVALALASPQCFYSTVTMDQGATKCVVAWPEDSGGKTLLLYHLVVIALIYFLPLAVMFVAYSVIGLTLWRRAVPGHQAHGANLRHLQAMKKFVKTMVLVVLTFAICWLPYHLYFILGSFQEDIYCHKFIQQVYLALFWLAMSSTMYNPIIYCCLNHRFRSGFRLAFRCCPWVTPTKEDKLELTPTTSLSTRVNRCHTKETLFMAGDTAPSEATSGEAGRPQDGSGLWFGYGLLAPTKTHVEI

D(1A) dopamine receptor = D(1A) dopamine receptor (Homo sapiens, UniProt P21728); format: functional, cell-based
Sequence of D(1A) dopamine receptor (P21728 whole entry): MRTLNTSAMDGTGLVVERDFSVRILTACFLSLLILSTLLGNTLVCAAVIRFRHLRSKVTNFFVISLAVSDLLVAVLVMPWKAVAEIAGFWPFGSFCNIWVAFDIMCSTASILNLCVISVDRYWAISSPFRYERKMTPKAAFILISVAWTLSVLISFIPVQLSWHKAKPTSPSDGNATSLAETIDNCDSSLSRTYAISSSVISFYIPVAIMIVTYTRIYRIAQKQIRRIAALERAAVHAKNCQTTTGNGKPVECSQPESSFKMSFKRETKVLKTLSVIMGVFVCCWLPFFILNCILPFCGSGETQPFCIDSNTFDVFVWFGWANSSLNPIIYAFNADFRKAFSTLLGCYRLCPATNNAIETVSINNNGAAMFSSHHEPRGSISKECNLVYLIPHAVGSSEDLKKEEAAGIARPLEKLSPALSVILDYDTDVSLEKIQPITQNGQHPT

[4] = molecular target: Receptor tyrosine-protein kinase erbB-2 (Homo sapiens, UniProt P04626); format: functional
Acetylcholinesterase = Acetylcholinesterase (Homo sapiens, UniProt P22303); format: functional
Sequence of Acetylcholinesterase (P22303 whole entry): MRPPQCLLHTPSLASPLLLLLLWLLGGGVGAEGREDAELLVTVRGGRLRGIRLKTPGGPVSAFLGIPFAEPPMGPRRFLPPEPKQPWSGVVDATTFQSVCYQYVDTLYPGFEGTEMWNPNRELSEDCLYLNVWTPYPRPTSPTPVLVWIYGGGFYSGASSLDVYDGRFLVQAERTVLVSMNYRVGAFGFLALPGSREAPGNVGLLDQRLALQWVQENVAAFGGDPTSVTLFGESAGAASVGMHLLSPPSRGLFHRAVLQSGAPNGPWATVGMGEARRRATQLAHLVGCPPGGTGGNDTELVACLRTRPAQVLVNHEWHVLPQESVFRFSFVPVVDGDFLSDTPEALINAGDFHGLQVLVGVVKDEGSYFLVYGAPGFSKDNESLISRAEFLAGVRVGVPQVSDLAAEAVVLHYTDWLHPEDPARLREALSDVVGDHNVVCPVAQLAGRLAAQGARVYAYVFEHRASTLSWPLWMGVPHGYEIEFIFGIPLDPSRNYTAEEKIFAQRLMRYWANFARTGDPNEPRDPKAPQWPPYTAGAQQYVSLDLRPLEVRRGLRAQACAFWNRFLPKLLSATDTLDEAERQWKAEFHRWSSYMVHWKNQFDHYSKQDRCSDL

Androgen receptor [5] = molecular target: T1, Androgen receptor; format: functional; remark: listed apart in the source
[6] = molecular target: T4, Alpha-1A adrenergic receptor (Homo sapiens, UniProt P35348)
T4 sequence (P35348 whole entry): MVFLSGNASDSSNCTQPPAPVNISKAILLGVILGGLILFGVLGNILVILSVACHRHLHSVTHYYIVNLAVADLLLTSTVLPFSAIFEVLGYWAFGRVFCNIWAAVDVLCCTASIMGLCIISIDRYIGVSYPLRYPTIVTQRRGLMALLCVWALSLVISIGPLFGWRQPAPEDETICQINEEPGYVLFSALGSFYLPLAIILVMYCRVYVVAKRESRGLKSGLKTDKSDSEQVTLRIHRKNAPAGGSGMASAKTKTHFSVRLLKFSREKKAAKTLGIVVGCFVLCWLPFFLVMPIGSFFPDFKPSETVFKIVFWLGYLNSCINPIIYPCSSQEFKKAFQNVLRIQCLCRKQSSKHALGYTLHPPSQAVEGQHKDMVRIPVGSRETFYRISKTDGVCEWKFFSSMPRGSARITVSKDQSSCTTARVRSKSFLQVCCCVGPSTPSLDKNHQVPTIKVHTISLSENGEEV

[7] = molecular target: Hydroxycarboxylic acid receptor 2 (Homo sapiens, UniProt Q8TDS4)
Sequence of Hydroxycarboxylic acid receptor 2 (Q8TDS4 whole entry): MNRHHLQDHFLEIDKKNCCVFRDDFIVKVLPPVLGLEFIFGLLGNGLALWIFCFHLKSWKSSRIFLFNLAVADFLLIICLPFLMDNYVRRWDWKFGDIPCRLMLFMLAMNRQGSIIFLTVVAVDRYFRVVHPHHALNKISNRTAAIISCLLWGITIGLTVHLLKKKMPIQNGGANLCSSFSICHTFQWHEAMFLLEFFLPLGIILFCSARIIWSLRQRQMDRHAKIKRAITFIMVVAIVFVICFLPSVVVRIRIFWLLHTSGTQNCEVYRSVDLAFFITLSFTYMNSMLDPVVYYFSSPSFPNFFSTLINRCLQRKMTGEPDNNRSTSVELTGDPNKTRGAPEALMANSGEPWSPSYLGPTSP
Further: assay procedure not described here.

CCOc1nc2cccc(C(=O)O)c2n1Cc1ccc(-c2ccccc2-c2nnn[nH]2)cc1
AC50 (Androgen receptor [1]): > 30 µM | AC50 (Cannabinoid receptor 1): > 10 µM | AC50 (D(4) dopamine receptor): > 10 µM | AC50 (Estrogen receptor beta): > 30 µM | AC50 [2]: > 10 µM | AC50 [3]: > 10 µM | AC50 (Substance-K receptor): > 10 µM

CCCc1nc2c(C)cc(-c3nc4ccccc4n3C)cc2n1Cc1ccc(-c2ccccc2C(=O)O)cc1
AC50 (Cannabinoid receptor 1): > 10 µM | AC50 (D(4) dopamine receptor): > 10 µM | AC50 (Estrogen receptor beta): > 30 µM | AC50 [2]: > 10 µM | AC50 [3]: > 10 µM

CCOc1cc([C@@H](CS(C)(=O)=O)N2C(=O)c3cccc(NC(C)=O)c3C2=O)ccc1OC
AC50 (Androgen receptor [1]): > 30 µM | AC50 (D(1A) dopamine receptor): > 30 µM | AC50 [4]: > 30 µM | AC50 (Acetylcholinesterase): > 30 µM

CC(C(=O)O)c1ccc2oc(-c3ccc(Cl)cc3)nc2c1 (configuration not stated) [BENOXAPROFEN]
AC50 (Androgen receptor [1]): > 30 µM | AC50 (Androgen receptor [5]): > 30 µM

Nc1c(CC(=O)O)cccc1C(=O)c1ccc(Br)cc1 [BROMFENAC]
AC50 [6]: > 30 µM

Cc1nnc(SCC2=C(C(=O)O)N3C(=O)[C@@H](NC(=O)Cn4cnnn4)[C@H]3SC2)s1 [CEFAZOLIN]
AC50 (D(1A) dopamine receptor): > 300 µM | AC50 [4]: > 300 µM | AC50 (Acetylcholinesterase): > 300 µM

CC(C)(O/N=C(\C(=O)N[C@@H]1C(=O)N2C(C(=O)[O-])=C(C[n+]3ccccc3)CS[C@H]12)c1csc(N)n1)C(=O)O [CEFTAZIDIME]
AC50 (D(1A) dopamine receptor): > 300 µM | AC50 [4]: > 300 µM | AC50 (Acetylcholinesterase): > 300 µM

CC(C)NC(=N)NC(=N)Nc1ccc(Cl)c(Cl)c1 [CHLORPROGUANIL]
AC50 [6]: 2.74 µM

CCCNC(=O)NS(=O)(=O)c1ccc(Cl)cc1 [CHLORPROPAMIDE]
AC50 (Estrogen receptor beta): > 30 µM

Clc1ccc(Cn2c(CN3CCCC3)nc3ccccc32)cc1 [CLEMIZOLE]
AC50 (D(1A) dopamine receptor): > 30 µM | AC50 [4]: > 30 µM | AC50 (Acetylcholinesterase): > 30 µM

CCC(=O)O[C@]1(C(=O)CCl)[C@@H](C)C[C@H]2[C@@H]3CCC4=CC(=O)C=C[C@]4(C)[C@@]3(F)[C@@H](O)C[C@@]21C [CLOBETASOL PROPIONATE]
AC50 (Androgen receptor [1]): > 30 µM | AC50 (Androgen receptor [5]): 27 µM

Cc1nc(Nc2ncc(C(=O)Nc3c(C)cccc3Cl)s2)cc(N2CCN(CCO)CC2)n1 [DASATINIB]
AC50 (Cannabinoid receptor 1): > 10 µM | AC50 (D(4) dopamine receptor): > 10 µM | AC50 [2]: > 10 µM | AC50 (Substance-K receptor): > 10 µM

O=C(O)Cc1ccccc1Nc1c(Cl)cccc1Cl [DICLOFENAC]
AC50 (Cannabinoid receptor 1): > 10 µM | AC50 (D(4) dopamine receptor): > 10 µM | AC50 (Estrogen receptor beta): > 30 µM | AC50 [2]: > 10 µM | AC50 [3]: > 10 µM | AC50 (Substance-K receptor): > 10 µM

CN[C@@H]1[C@H](O[C@H]2[C@H](O[C@H]3[C@H](O)[C@@H](O)[C@H](NC(=N)N)[C@@H](O)[C@@H]3NC(=N)N)O[C@@H](C)[C@]2(O)CO)O[C@@H](CO)[C@H](O)[C@H]1O [DIHYDROSTREPTOMYCIN]
AC50 [6]: > 30 µM

O=C(O)Cc1ccccc1Oc1ccc(Cl)cc1Cl [FENCLOFENAC]
AC50 (D(4) dopamine receptor): > 10 µM | AC50 [7]: > 10 µM

Cc1onc(-c2c(F)cccc2Cl)c1C(=O)N[C@@H]1C(=O)N2[C@@H]1SC(C)(C)[C@@H]2C(=O)O [FLOXACILLIN]
AC50 (D(1A) dopamine receptor): > 30 µM | AC50 [4]: > 30 µM | AC50 (Acetylcholinesterase): > 30 µM

Cc1ccc(C)c(OCCCC(C)(C)C(=O)O)c1 [GEMFIBROZIL]
AC50 (D(4) dopamine receptor): > 10 µM | AC50 (Estrogen receptor beta): > 30 µM | AC50 [2]: > 10 µM | AC50 [7]: > 10 µM

C#C[C@]1(O)C=C[C@H]2[C@@H]3CCC4=CC(=O)CC[C@@H]4[C@H]3CC[C@@]21CC [GESTODENE]
AC50 [6]: > 30 µM

COc1ccccc1OC1(C)OC(=O)c2ccccc2O1 (configuration not stated) [GUAIMESAL]
AC50 (Androgen receptor [1]): > 30 µM | AC50 (Androgen receptor [5]): > 30 µM

COc1cc(C(C)=O)ccc1OCCCN1CCC(c2noc3cc(F)ccc23)CC1 [ILOPERIDONE]
AC50 (D(4) dopamine receptor): 0.0209 µM

CC[C@H](C)C(=O)O[C@H]1C[C@@H](C)C=C2C=C[C@H](C)[C@H](CC[C@@H]3C[C@@H](O)CC(=O)O3)[C@H]21 [LOVASTATIN]
AC50 (D(4) dopamine receptor): > 10 µM | AC50 (Estrogen receptor beta): > 30 µM | AC50 [7]: > 10 µM

CC[C@@H](CO)NC(=O)[C@@H]1C=C2c3cccc4c3c(cn4C)C[C@H]2N(C)C1 [METHYSERGIDE]
AC50 (Estrogen receptor beta): 24.5 µM

CC(CN1c2ccccc2Sc2ccccc21)N(C)C (configuration not stated) [PROMETHAZINE]
AC50 [6]: 0.03 µM | AC50 (Estrogen receptor beta): > 30 µM | AC50 [7]: > 10 µM

CN(CCOc1ccc(CC2SC(=O)NC2=O)cc1)c1ccccn1 (configuration not stated) [ROSIGLITAZONE]
AC50 (Cannabinoid receptor 1): > 10 µM | AC50 (D(4) dopamine receptor): > 10 µM | AC50 (Estrogen receptor beta): > 30 µM | AC50 [2]: > 10 µM | AC50 [3]: > 10 µM

S=P(N1CC1)(N1CC1)N1CC1 [THIOTEPA]
AC50 (D(1A) dopamine receptor): > 30 µM | AC50 [4]: > 30 µM | AC50 (Acetylcholinesterase): > 30 µM

CC(C)C[C@H](NC(=O)[C@@H](O)[C@H](N)Cc1ccccc1)C(=O)O [UBENIMEX]
AC50 [6]: > 30 µM

CC(C)[C@H](N)C(=O)OCCOCn1cnc2c(=O)[nH]c(N)nc21 [VALACYCLOVIR]
AC50 (D(4) dopamine receptor): > 10 µM | AC50 (Estrogen receptor beta): > 30 µM | AC50 [7]: > 10 µM

O=C1Cc2cc(CCN3CCN(c4nsc5ccccc45)CC3)c(Cl)cc2N1 [ZIPRASIDONE]
AC50 (Estrogen receptor beta): > 30 µM | AC50 [7]: > 10 µM
